Assay [1] concerns organophosphate-resistant green rice leafhoppers (Nephotettix cincticeps). Briefly: Test on organophosphate-resistant green rice leafhoppers (spray on rice plants, kill ratio). Conditions: sprayed rice plants, 30 female imagoes, kill ratio two days later; compared with comparison compounds W-1, W-2 and Q 2.
Experimental: Test on organophosphate-resistant green rice leafhoppers (Nephotettix cincticeps)
Preparation of a test chemical
Solvent: 3 parts by weight of xylene
Emulsifier: 1 part by weight of polyoxyethylene alkylphenyl ether
A water dilution of each of the reactive compounds in a predetermined concentration prepared as above was sprayed onto rice plants, about 10 cm tall, grown in pots having a diameter of 12 cm at a rate of 10 ml per pot. […] The pots were placed in a constant-temperature chamber. Two days later, the number of dead insects was examined, and the kill ratio was calculated.
In assay [2] the test system is green peach aphids (Myzus persicae) having resistance to organophosphate and carbamate chemicals. Put plainly: Test on green peach aphids having resistance to organophosphate and carbamate chemicals (spray on eggplant seedlings, kill ratio). Type of assay: in vivo. Conditions: sprayed eggplant seedlings, 28° C., kill ratio twenty-four hours after spraying; compared with W-1, W-2 and Q-2. From the text:
Test on green peach aphids (Myzus persicae) having resistance to organophosphate and carbamate chemicals
Bred green peach aphids having resistance to organophsophates and carbamates were inoculated on eggplant (black elongate variety) seedlings, about 20 cm tall, grown in unglazed pots having a diameter of 15 cm at a rate of about 200 per seedling. One day after the inoculation, a water dilution of each of the active compounds in a predetermined concentration prepared as in Example 6 was sprayed in sufficient amounts by means of a spray gun. After the spraying, the pots were left to stand in a greenhouse kept at 28° C. Twenty-four hours after the spraying, the kill ratio was calculated. The above test was carried out through two replicates.

Assay [3] concerns organophosphate-resistant smaller brown planthopper (Laodelphax stiatellus). Briefly: Test on planthoppers: smaller brown planthopper (spray on rice plants, kill ratio). Type of assay: in vivo. Conditions: sprayed rice plants, kill ratio two days later, compared with W-1, W-2 and Q-1. The procedure:
(§1) In the same way as above, the kill ratio on white-backed planthopper (Sogatella furcifera) and organophosphate-resistant smaller brown planthopper (Laodelphax stiatellus) was calculated.

In assay [4] the test system is white-backed planthopper (Sogatella furcifera). Put plainly: Test on planthoppers: white-backed planthopper (spray on rice plants, kill ratio). Type of assay: in vivo. Conditions: sprayed rice plants, kill ratio two days later, compared with W-1, W-2 and Q-1. The procedure: as §1

`Cc1cnc(CN2CCN/C2=N\C#N)cn1` [Compound 54, 1-(2-methyl-5-pyrazinylmethyl)-2-cyanoiminoimidazolidine]: the “efficacy (kill ratio) compared with comparison compounds” value (from here on “efficacy (kill ratio)”) in assay [1] is “considerably better efficacy”.
On to `N#C/N=C1\SCCN1Cc1cnc(Cl)s1` [Compound 69], for which the “efficacy (kill ratio)” value in assay [1] and in assay [2] was “considerably better efficacy” each time.
For `N#C/N=C1\NCCN1Cc1ccc(Cl)nc1` [Compound 5, 1-(2-chloro-5-pyridylmethyl)-2-cyanoiminoimidazolidine], the “efficacy (kill ratio)” value in assay [1], in assay [3], in assay [2] and in assay [4] was “considerably better efficacy” throughout.

Source of the values: patent USRE39130E1 (Bayer Cropscience K.K., priority 1986, dated 2006).
